Earlier results in article PMC3172588 (Organic & Biomolecular Chemistry, 2010).

Columns and labels:
[1] = system: sea urchin cADPR receptor (sea urchin egg homogenate, SUH)
[2] = system: T cell-cADPR receptor (permeabilised Jurkat T-cells, JTC); conditions: class in words; ref [8],[17],[23],[36]

Compound: 3-deaza cADPR
- times more potent than cADPR in SUH ([1]; agonist, ref [20]): 70 times

Compound: 8-Cl-cADPcR [8-Cl-cADPcR (5)]
- EC50 ([1]; read-out: Activity in SUH: agonist EC50, Table 3, compounds synthesized by Shuto's group, ref [15],[38],[51],[52]): 19 µM

Compound: O=c1c2nc(Br)n3c2ncn1[C@@H]1O[C@H](COP(=O)(O)OP(=O)(O)OC[C@H]2O[C@@H]3[C@H](O)[C@@H]2O)[C@@H](O)[C@H]1O [8-Bromo cIDPR]
- Activity in T cells / JTC (running text, literature) [2]: agonist activity

Compound: [N-]=[N+]=Nc1nc2c(=N)n3cnc2n1C1OC(COP(=O)(O)OP(=O)(O)OCC2OC3C(O)C2O)C(O)C1O (stereo not shown) [8-azido-cADPR]
- Activity in SUH (running text, literature) ([1]; class in words, ref [8],[13],[17],[23],[32],[36],[38]): antagonists
